Assay results as given in article PMC10093841 (International Journal of Molecular Sciences, 2023).
Entries after “also recorded” stand apart in the source; their conditions may differ. Read-outs that look alike come from different tables or passages of the source.

Experiments:
AChE = settings: carvacrol stronger than its isomer thymol; cited from earlier work
[1] = Hydrogen peroxide scavenging assay (1,10-phenanthroline); settings: cell-free, concentration range 0–1000 μg/mL
Experimental: Briefly, 0.25 mL of ferrous ammonium sulfate (1 mM) solution was mixed with 1.5 mL of different concentrations (from 6 to 500 μg/mL) of carvacrol, p-cymene; acid gallic was used as a positive control. Then, 62.5 µL of H2O2 (5 mM) was added and the mixture was incubated at room temperature in the dark for 5 min. Then, 1.5 mL of 1,10-phenanthroline (1 mM) was added to each tube, mixed, and incubated for 10 min at room temperature. Finally, the absorbance was measured at 510 nm through a spectrophotometer (Thermo Scientific Multiskan GO, Monza, Italy).

[2] = system: caspase-3 in SH-SY5Y cells; experiment: Caspase-3 expression (Western blot) in H2O2-induced stress; type: cell-based, Human; settings: pretreatment 50 μg/mL for 22 h, then H2O2 100 or 200 μM for 2 h
Experimental: To investigate the neuroprotective effects of carvacrol and p-cymene on H2O2-induced stress in SH-SY5Y cells, the cells were assigned to a total of nine groups: Group 1: control (untreated cells); Groups 2 and 3, cells treated with H2O2 alone, at 100 and 200 μM for two h; Groups 4–5: cells treated with carvacrol or p-cymene MNTD (50 µg/mL) Groups 6–9: cells pretreated with carvacrol or p-cymene MNTD for 22 h and then exposed to H2O2 at 100 and 200 μM for another two h. After the cell lysis, we determined the caspase-3 activity. For caspase-3 activity analysis, the SH-SY5Y cells (1 × 10^4) were seeded in separate wells in 12-well plates (Corning, Inc., Corning, NY, USA). The cells were allowed to reach 70–80% confluency before the treatment groups were initiated. The cells were collected after 24 h and lysed using the Laemmli buffer to extract total proteins. For Western blot analysis, an aliquot of total protein was run on 10% SDS-PAGE gel and transferred to nitrocellulose. […] Immunoreactivity was detected through a sequential incubation with horseradish peroxidase-conjugated secondary antibody and enhanced chemiluminescence reagents. Each band density was measured using ImageJ software (WS Rasband, Image J, NIH, Bethesda, MD, USA).

[3] = target: T1, acetylcholinesterase (AChE) type VI-S from Electrophorus electricus (Electrophorus electricus, UniProt O42275); experiment: Cholinesterase inhibition, Ellman's colorimetric method (AChE); type: biochemical
T1 construct: purchased Sigma-Aldrich
Experimental: (§1) Anti-GAPDH antibody and enhanced chemiluminescence reagents were purchased from Santa Cruz Biotechnology (Santa Cruz, CA, USA); horseradish peroxidase-conjugated secondary antibody was purchased from Amersham Biosciences (Pittsburgh, PA, USA). Nitrocellulose was purchased from Biorad (Hercules, CA, USA).
(§2) The cholinesterase inhibition was evaluated by Ellman’s colorimetric method with some modifications. Briefly, in a total volume of 1 mL, 415 µL of Tris-HCl buffer 0.1 M (pH 8), 10 µL of a buffer solution of carvacrol or p-cymene (in methanol) at different concentrations (100, 10, 1 and 0.1 µg/mL), and 25 µL of a solution containing 0.28 U/mL of AChE (or BChE) were incubated for 15 min at 37 °C. […] The absorbance was measured at 405 nm in a spectrophotometer (Thermo Scientific Multiskan GO, Monza, Italy).
(§3) The percent inhibition of enzyme activity for acetylcholinesterase, butyrylcholinesterase, and α-amylase was calculated by comparison with the absorbance of the control without sample, following the formula: % = [(A0 − A1)/A0] × 100(1) where A0 is the absorbance of the control without the sample and A1 is the absorbance of the sample.

[4] = target: T2, butyrylcholinesterase (BChE) from equine serum (Equus caballus, UniProt P81908); experiment: biochemical
T2 construct: purchased Sigma-Aldrich; host or cells: equine serum
Experimental: as §1, §2, §3

[5] = target: T3, porcine pancreatic amylase (Sus scrofa, UniProt P00690); experiment: biochemical
T3 construct: purchased Sigma-Aldrich
Experimental: as §1, §3

BChE = system: BChE; set-up: method as in doi:10.1007/s10068-015-0093-0; settings: at a concentration of 2 mg/mL; cited from earlier work

T3 sequence (P00690 16-511): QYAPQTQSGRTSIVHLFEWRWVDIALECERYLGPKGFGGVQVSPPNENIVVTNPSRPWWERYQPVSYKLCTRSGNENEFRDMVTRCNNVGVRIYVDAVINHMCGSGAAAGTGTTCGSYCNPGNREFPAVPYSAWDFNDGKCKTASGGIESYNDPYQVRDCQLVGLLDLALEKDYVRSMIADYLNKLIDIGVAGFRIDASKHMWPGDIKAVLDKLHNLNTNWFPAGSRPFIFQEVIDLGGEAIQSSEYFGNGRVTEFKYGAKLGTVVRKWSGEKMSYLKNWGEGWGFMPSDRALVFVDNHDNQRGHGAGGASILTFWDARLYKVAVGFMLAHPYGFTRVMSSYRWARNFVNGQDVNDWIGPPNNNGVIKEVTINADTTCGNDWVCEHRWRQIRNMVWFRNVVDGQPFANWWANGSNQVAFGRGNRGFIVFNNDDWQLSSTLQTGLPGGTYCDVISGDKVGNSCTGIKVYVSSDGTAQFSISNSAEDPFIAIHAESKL
T2 sequence (P81908 whole entry): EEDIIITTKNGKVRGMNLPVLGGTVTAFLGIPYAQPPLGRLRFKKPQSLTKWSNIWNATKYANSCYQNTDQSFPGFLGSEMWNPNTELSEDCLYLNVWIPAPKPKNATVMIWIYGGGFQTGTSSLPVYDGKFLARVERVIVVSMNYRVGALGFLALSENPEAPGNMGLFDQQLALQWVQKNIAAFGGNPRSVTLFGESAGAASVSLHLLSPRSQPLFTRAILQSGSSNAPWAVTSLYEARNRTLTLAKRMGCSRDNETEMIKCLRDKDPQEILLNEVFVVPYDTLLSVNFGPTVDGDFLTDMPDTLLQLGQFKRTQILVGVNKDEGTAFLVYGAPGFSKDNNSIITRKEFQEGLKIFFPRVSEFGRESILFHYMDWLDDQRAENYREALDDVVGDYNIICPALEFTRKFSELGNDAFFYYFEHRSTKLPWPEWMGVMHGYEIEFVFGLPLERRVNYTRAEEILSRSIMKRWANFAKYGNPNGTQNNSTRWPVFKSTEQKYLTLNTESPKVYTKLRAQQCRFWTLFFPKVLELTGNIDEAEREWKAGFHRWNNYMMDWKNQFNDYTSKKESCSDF
T1 sequence (O42275 24-633): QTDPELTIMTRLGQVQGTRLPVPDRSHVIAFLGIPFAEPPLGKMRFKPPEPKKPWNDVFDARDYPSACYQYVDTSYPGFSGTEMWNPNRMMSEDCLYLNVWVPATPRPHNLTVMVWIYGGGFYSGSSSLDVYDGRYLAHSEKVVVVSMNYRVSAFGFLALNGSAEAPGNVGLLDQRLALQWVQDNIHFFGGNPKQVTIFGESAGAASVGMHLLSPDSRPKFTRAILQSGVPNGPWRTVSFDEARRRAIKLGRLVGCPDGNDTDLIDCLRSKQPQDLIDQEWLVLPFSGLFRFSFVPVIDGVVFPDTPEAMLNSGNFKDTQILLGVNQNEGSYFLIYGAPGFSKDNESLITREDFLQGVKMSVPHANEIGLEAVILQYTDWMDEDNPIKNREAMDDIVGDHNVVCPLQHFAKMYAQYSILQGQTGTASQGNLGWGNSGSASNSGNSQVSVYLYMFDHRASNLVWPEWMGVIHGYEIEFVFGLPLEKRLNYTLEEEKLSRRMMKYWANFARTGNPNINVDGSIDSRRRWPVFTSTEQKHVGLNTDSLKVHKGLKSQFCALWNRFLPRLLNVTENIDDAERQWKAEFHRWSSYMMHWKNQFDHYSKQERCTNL

Structure (SMILES)	inhibitory effect relative to thymol (AChE)	H2O2 scavenging activity [1]	caspase-3 expression [2]	IC50 [3]	IC50 ([4]; concentration required to reduce the enzymatic activity by 50%, read-out: IC50 BChE (converted))	IC50 ([5]; read-out: IC50 α-Amylase (converted))	inhibition of BChE activity (BChE)	IC50 [4]	IC50 [5]
Cc1ccc(C(C)C)cc1O [Carvacrol]	10 times	more active than p-cymene	reduced; also recorded: caspase-3 was inhibited	25.3 µM	218 µM	1140 µM	–	–	–
Cc1ccc(C(C)C)c(O)c1 [Thymol]	–	–	–	–	–	–	42.2%	–	–
Cc1ccc(C(C)C)cc1 [p-Cymene]	–	–	–	113 µM	–	–	–	10800 µM	1600 µM
